Some results are limits rather than exact numbers.

Broadly, the Kd is the constant that tells how readily two partners part at equilibrium.

Sequence of human TYK2 (JH2domain-pseudokinase) (P29597 556-888): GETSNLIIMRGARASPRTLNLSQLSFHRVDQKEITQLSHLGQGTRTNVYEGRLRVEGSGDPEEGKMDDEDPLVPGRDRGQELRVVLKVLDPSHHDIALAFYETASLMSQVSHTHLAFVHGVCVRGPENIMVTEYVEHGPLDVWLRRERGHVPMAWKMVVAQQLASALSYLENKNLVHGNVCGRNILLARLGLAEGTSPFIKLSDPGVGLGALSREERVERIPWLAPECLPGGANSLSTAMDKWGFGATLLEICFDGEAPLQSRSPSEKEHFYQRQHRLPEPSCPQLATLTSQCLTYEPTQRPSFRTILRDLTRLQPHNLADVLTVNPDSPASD

This assay deals with human TYK2 (JH2domain-pseudokinase) (Homo sapiens (Human), UniProt P29597). In words: TYK2 JH2 Domain Binding Assay (KINOMEscan, DiscoveRx). The note with it: 11-point dilution, duplicate. A digest of the protocol:
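Kd from duplicate 11-point 3-fold dilutions starting at 30,000 nM, fitted by Hill equation with slope fixed at −1. Compounds (final 0.9% DMSO) displace DNA-tagged HEK293-expressed TYK2 JH2 fusion (<0.1 nM) from ligand-coated beads over 1 h at room temperature; eluted kinase read by qPCR.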
Turning to `CS(=O)(=O)c1cc(C2CCCCO2)ccc1Nc1cc(NC(=O)C2CC2)nc2[nH]c(C(F)F)nc12` (centres unmarked) [I-401, N-(2-(difluoromethyl)-7-((2-(methylsulfonyl)-4-(tetrahydro-2H-pyran-2-yl)phenyl)amino)-3H-imidazo[4,5-b]pyridin-5-yl)cyclopropanecarboxamide], the Kd was less than 0.1 nM. `COC(C)c1ccc(Nc2cc(NC(=O)C3CC3)nc3[nH]c(C(F)F)nc23)c(S(C)(=O)=O)c1` (centres unmarked) [I-402, N-(2-(difluoromethyl)-7-((4-(1-methoxyethyl)-2-(methylsulfonyl)phenyl)amino)-3H-imidazo[4,5-b]pyridin-5-yl)cyclopropanecarboxamide]: the Kd lay within 0.5 to 1 nM. In the case of `COc1c(Nc2cc(Nc3ccc(NCCCCl)c(C#N)n3)nc3[nH]c(C)nc23)cccc1-c1nnn(C)n1` [I-403, 3-((3-chloropropyl)amino)-6-((7-((2-methoxy-3-(2-methyl-2H-tetrazol-5-yl)phenyl)amino)-2-methyl-3H-imidazo[4,5-b]pyridin-5-yl)amino)picolinonitrile], the Kd fell in the range of 0.5 to 1 nM. The compound `Cn1cncc1-c1ccc(Nc2cc(NC(=O)[C@H]3C[C@H]3F)nc3[nH]c(C(F)F)nc23)c(S(C)(=O)=O)c1` [I-405, (1R,2R)—N-(2-(difluoromethyl)-7-((4-(1-methyl-1H-imidazol-5-yl)-2-(methylsulfonyl)phenyl)amino)-3H-imidazo[4,5-b]pyridin-5-yl)-2-fluorocyclopropane-1-carboxamide] returned a Kd of 0.1 to 0.5 nM. In the case of `Cc1cn(C)nc1-c1ccc(Nc2cc(NC(=O)[C@@H]3C[C@@H]3F)nc3[nH]c(C(F)F)nc23)c(S(C)(=O)=O)c1` [I-406, (1 S,2S)—N-(2-(difluoromethyl)-7-((4-(1,4-dimethyl-1H-pyrazol-3-yl)-2-(methylsulfonyl)phenyl)amino)-3H-imidazo[4,5-b]pyridin-5-yl)-2-fluorocyclopropane-1-carboxamide], the Kd is less than 0.1 nM. The same measure for `Cc1cn(C)nc1-c1ccc(Nc2cc(NC(=O)[C@H]3C[C@H]3F)nc3[nH]c(C(F)F)nc23)c(S(C)(=O)=O)c1` [I-407, (1R,2R)—N-(2-(difluoromethyl)-7-((4-(1,4-dimethyl-1H-pyrazol-3-yl)-2-(methylsulfonyl)phenyl)amino)-3H-imidazo[4,5-b]pyridin-5-yl)-2-fluorocyclopropane-1-carboxamide]: 0.1 to 0.5 nM.

Consider `CP(C)(=O)c1cc(C2CCOCC2)ccc1Nc1cc(NC(=O)C2CC2)nc2[nH]c(C(F)F)nc12` [I-408, N-(2-(difluoromethyl)-7-((2-(dimethylphosphoryl)-4-(tetrahydro-2H-pyran-4-yl)phenyl)amino)-3H-imidazo[4,5-b]pyridin-5-yl)cyclopropanecarboxamide], for which the dissociation constant Kd is 0.5 to 1 nM. Regarding `CS(=O)(=O)c1cc(C2CC2)ccc1Nc1cc(Nc2cc3n(n2)CCCCC3)nc2[nH]c(C(F)F)nc12` [I-409, N7-(4-cyclopropyl-2-(methylsulfonyl)phenyl)-2-(difluoromethyl)-N5-(5,6,7,8-tetrahydro-4H-pyrazolo[1,5-a]azepin-2-yl)-3H-imidazo[4,5-b]pyridine-5,7-diamine], the Kd fell in the range of 0.1 to 0.5 nM. In turn, `Cc1nc2c(Nc3ccc(C4CC4)cc3S(C)(=O)=O)cc(Nc3cc4n(n3)CCCCC4)nc2[nH]1` [I-410, N7-(4-cyclopropyl-2-(methylsulfonyl)phenyl)-2-methyl-N5-(5,6,7,8-tetrahydro-4H-pyrazolo[1,5-a]azepin-2-yl)-3H-imidazo[4,5-b]pyridine-5,7-diamine] yielded a Kd of 0.1 to 0.5 nM. On to `Cc1nc2c(Nc3ccc(C4CCC4)cc3S(C)(=O)=O)cc(NC(=O)[C@@H]3CC3(F)F)nc2[nH]1` [I-411, (S)—N-(7-((4-cyclobutyl-2-(methylsulfonyl)phenyl)amino)-2-methyl-3H-imidazo[4,5-b]pyridin-5-yl)-2,2-difluorocyclopropane-1-carboxamide], for which the Kd lay in the range of 1 to 10 nM.

For `Cc1nc2c(Nc3ccc(C4CCC4)cc3S(C)(=O)=O)cc(NC(=O)[C@H]3CC3(F)F)nc2[nH]1` [I-412, (R)—N-(7-((4-cyclobutyl-2-(methylsulfonyl)phenyl)amino)-2-methyl-3H-imidazo[4,5-b]pyridin-5-yl)-2,2-difluorocyclopropane-1-carboxamide], the Kd is more than 10 nM. For `Cc1nc2c(Nc3ccc(C4CCC4)cc3S(C)(=O)=O)cc(NC(=O)[C@H]3C[C@H]3F)nc2[nH]1` [I-413, (1R,2R)—N-(7-((4-cyclobutyl-2-(methylsulfonyl)phenyl)amino)-2-methyl-3H-imidazo[4,5-b]pyridin-5-yl)-2-fluorocyclopropane-1-carboxamide], the Kd was in the range of 0.5 to 1 nM.

`Cc1nc2c(Nc3ccc(C4CCC4)cc3S(C)(=O)=O)cc(NC(=O)[C@@H]3C[C@@H]3F)nc2[nH]1` [I-414, (1S,2S)—N-(7-((4-cyclobutyl-2-(methylsulfonyl)phenyl)amino)-2-methyl-3H-imidazo[4,5-b]pyridin-5-yl)-2-fluorocyclopropane-1-carboxamide]: the Kd lay in the range of 0.1 to 0.5 nM. In turn, `Cc1nc(-c2ccc(Nc3cc(NC(=O)C4CC4)nc4[nH]c(C(F)F)nc34)c(S(C)(=O)=O)c2)sc1C` [I-415, N-(2-(difluoromethyl)-7-((4-(4,5-dimethylthiazol-2-yl)-2-(methylsulfonyl)phenyl)amino)-3H-imidazo[4,5-b]pyridin-5-yl)cyclopropanecarboxamide] gave a Kd of 1 to 10 nM.

Take `Cc1cc(Nc2cc(Nc3ccc(C4CC4)cc3S(C)(=O)=O)c3nc(C(F)F)[nH]c3n2)nc(C)n1` [I-416, N7-(4-cyclopropyl-2-(methylsulfonyl)phenyl)-2-(difluoromethyl)-N5-(2,6-dimethylpyrimidin-4-yl)-3H-imidazo[4,5-b]pyridine-5,7-diamine]: the Kd lay in the range of 0.1 to 0.5 nM. In the case of `Cc1ncc(Nc2cc(Nc3ccc(C4CC4)cc3S(C)(=O)=O)c3nc(C(F)F)[nH]c3n2)nc1C` [I-417, N7-(4-cyclopropyl-2-(methylsulfonyl)phenyl)-2-(difluoromethyl)-N5-(5,6-dimethylpyrazin-2-yl)-3H-imidazo[4,5-b]pyridine-5,7-diamine], the Kd was 1 to 10 nM. In the case of `Cc1ccc(-c2ccc(Nc3cc(NC(=O)C4CC4)nc4[nH]c(C(F)F)nc34)c(S(C)(=O)=O)c2)o1` [I-418, N-(2-(difluoromethyl)-7-((4-(5-methylfuran-2-yl)-2-(methylsulfonyl)phenyl)amino)-3H-imidazo[4,5-b]pyridin-5-yl)cyclopropanecarboxamide], the Kd lay within 1 to 10 nM. As to `Cc1nc2c(Nc3ccc(-c4ccc(C)o4)cc3S(C)(=O)=O)cc(NC(=O)C3CC3)nc2[nH]1` [I-419, N-(2-methyl-7-((4-(5-methylfuran-2-yl)-2-(methylsulfonyl)phenyl)amino)-3H-imidazo[4,5-b]pyridin-5-yl)cyclopropanecarboxamide], the Kd lay within 0.1 to 0.5 nM. The compound `Cc1cc(-c2ccc(Nc3cc(NC(=O)C4CC4)nc4[nH]c(C(F)F)nc34)c(S(C)(=O)=O)c2)oc1C` [I-420, N-(2-(difluoromethyl)-7-((4-(4,5-dimethylfuran-2-yl)-2-(methylsulfonyl)phenyl)amino)-3H-imidazo[4,5-b]pyridin-5-yl)cyclopropanecarboxamide] came in with a Kd of 1 to 10 nM.

`Cc1nc2c(Nc3ccc(-c4cc(C)c(C)o4)cc3S(C)(=O)=O)cc(NC(=O)C3CC3)nc2[nH]1` [I-421, N-(7-((4-(4,5-dimethylfuran-2-yl)-2-(methylsulfonyl)phenyl)amino)-2-methyl-3H-imidazo[4,5-b]pyridin-5-yl)cyclopropanecarboxamide] came in with a Kd of 0.1 to 0.5 nM.

`Cc1nc2c(Nc3ccc([C@H]4CCCO4)cc3S(C)(=O)=O)cc(NC(=O)[C@@H]3CC3(F)F)nc2[nH]1` [I-422, (S)-2,2-difluoro-N-(2-methyl-7-((2-(methylsulfonyl)-4-((R)-tetrahydrofuran-2-yl)phenyl)amino)-3H-imidazo[4,5-b]pyridin-5-yl)cyclopropane-1-carboxamide] came in with a Kd of 0.5 to 1 nM.

In the case of `Cc1nc2c(Nc3ccc([C@H]4CCCO4)cc3S(C)(=O)=O)cc(NC(=O)[C@H]3CC3(F)F)nc2[nH]1` [I-423, (R)-2,2-difluoro-N-(2-methyl-7-((2-(methylsulfonyl)-4-((R)-tetrahydrofuran-2-yl)phenyl)amino)-3H-imidazo[4,5-b]pyridin-5-yl)cyclopropane-1-carboxamide], the Kd was in the range of 1 to 10 nM. In turn, `CS(=O)(=O)c1cc([C@@H]2CCCO2)ccc1Nc1cc(NC(=O)C2CC2)nc2[nH]c(C(F)F)nc12` [I-424, (S)—N-(2-(difluoromethyl)-7-((2-(methylsulfonyl)-4-(tetrahydrofuran-2-yl)phenyl)amino)-3H-imidazo[4,5-b]pyridin-5-yl)cyclopropanecarboxamide] came in with a Kd of less than 0.1 nM. As to `CS(=O)(=O)c1cc([C@H]2CCCO2)ccc1Nc1cc(NC(=O)C2CC2)nc2[nH]c(C(F)F)nc12` [I-425, (R)—N-(2-(difluoromethyl)-7-((2-(methylsulfonyl)-4-(tetrahydrofuran-2-yl)phenyl)amino)-3H-imidazo[4,5-b]pyridin-5-yl)cyclopropanecarboxamide], the Kd lay within 0.1 to 0.5 nM. As for `Cc1nc2c(Nc3ccc([C@@H]4CCCO4)cc3S(C)(=O)=O)cc(NC(=O)[C@@H]3CC3(F)F)nc2[nH]1` [I-426, (S)-2,2-difluoro-N-(2-methyl-7-((2-(methylsulfonyl)-4-((S)-tetrahydrofuran-2-yl)phenyl)amino)-3H-imidazo[4,5-b]pyridin-5-yl)cyclopropane-1-carboxamide], the Kd was 0.1 to 0.5 nM. In the case of `Cc1nc2c(Nc3ccc([C@@H]4CCCO4)cc3S(C)(=O)=O)cc(NC(=O)[C@H]3CC3(F)F)nc2[nH]1` [I-427, (R)-2,2-difluoro-N-(2-methyl-7-((2-(methylsulfonyl)-4-((S)-tetrahydrofuran-2-yl)phenyl)amino)-3H-imidazo[4,5-b]pyridin-5-yl)cyclopropane-1-carboxamide], the equilibrium dissociation constant (Kd) was in the range of 0.1 to 0.5 nM.

The record behind these values is US10647713B2 (Nimbus Lakshmi, Inc., priority 2016, dated 2020).
